Source: US8304446B2, “Compounds” (Glaxo Group Limited, priority 2009, dated 2012)
Structures can show the parent of a compound that is named as a salt.

What follows are compounds tested against T1, CCR4 (Homo sapiens, UniProt P51679) (assay: [35S]-GTPγS SPA binding assay for CCR4 antagonist activity). Conditions: CCR4 expressing CHO membranes; human MDC at EC80; [35S]-GTPγS competition.
T1 construct: expressed in transfected cells; host or cells: CHO cell membranes
T1 sequence (P51679 1-360): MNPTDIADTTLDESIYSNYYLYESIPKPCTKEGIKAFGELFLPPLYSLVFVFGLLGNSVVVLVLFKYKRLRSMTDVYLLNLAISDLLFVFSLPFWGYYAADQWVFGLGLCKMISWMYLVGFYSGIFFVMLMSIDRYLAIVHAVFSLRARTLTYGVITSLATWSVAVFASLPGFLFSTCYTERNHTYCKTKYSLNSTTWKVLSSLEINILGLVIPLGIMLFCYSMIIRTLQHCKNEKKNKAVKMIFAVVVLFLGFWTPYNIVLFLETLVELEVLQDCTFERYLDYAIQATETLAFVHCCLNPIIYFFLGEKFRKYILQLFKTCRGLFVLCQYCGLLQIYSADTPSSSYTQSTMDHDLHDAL
Type: biochemical
Method: [35S]-GTPγS SPA Binding Assays for CCR4 Antagonist Activity
Antagonist potency was determined by a radioligand [35S]-GTPγS competition assay. Briefly, CCR4 expressing CHO membranes were homogenised by passing through a 23G needle. These membranes were then adhered to WGA-coated Leadseeker SPA beads in assay buffer (20 mM HEPES, 10 mM MgCl2, 100 mM NaCl, 0.05% BSA, 40 ug/ml Saponin and pH adjusted to 7.4 using KOH 5M) to generate a 3 μg/well final assay concentration (FAC) membrane and 250 μg/well FAC bead, solution.
The bead/membrane/[35S]-GTPγS/Agonist suspension was dispensed into white Greiner polypropylene 384-well plates (45 μl/well), containing 0.5 μl of compound. […] Plates were then read on a Viewlux instrument and luminescence was then plotted as a percentage of the maximum inhibitional response elicited by an IC100 of a standard antagonist.
`COc1cccc2c1c(NS(=O)(=O)c1ccc(Cl)s1)nn2Cc1cccc(CNC(=O)C[C@H](N)C(=O)O)c1` [Example 80, N^4-[(3-{[3-{[(5-Chloro-2-thienyl)sulfonyl]amino}-4-(methyloxy)-1H-indazol-1-yl]methyl}phenyl)methyl]-L-asparagine trifluoroacetate] showed an IC50 of 3.98 to 15.8 nM. For `CNCC(=O)NCc1cccc(Cn2nc(NS(=O)(=O)c3ccc(Cl)s3)c3c(OC)cccc32)c1` [Example 85, N^1-[(3-{[3-{[(5-Chloro-2-thienyl)sulfonyl]amino}-4-(methyloxy)-1H-indazol-1-yl]methyl}phenyl)methyl]-N^2-methylglycinamide trifluoroacetate], the IC50 was 3.98 to 15.8 nM. Work on `COc1cccc2c1c(NS(=O)(=O)c1ccc(Cl)s1)nn2Cc1cccc(CNC(=O)[C@@H](N)CO)c1` [Example 102, N^1-[(3-{[3-{[(5-Chloro-2-thienyl)sulfonyl]amino}-4-(methyloxy)-1H-indazol-1-yl]methyl}phenyl)methyl]-L-serinamide] yielded an IC50 of 3.98 to 15.8 nM. `COc1cccc2c1c(NS(=O)(=O)c1ccc(Cl)s1)nn2Cc1cccc(CNC(=O)[C@@H](N)Cc2c[nH]c3ccccc23)c1` [Example 114, N-[(3-{[3-{[(5-Chloro-2-thienyl)sulfonyl]amino}-4-(methyloxy)-1H-indazol-1-yl]methyl}phenyl)methyl]-L-tryptophanamide] showed an IC50 of 3.98 to 15.8 nM. `COc1cccc2c1c(NS(=O)(=O)c1cccs1)nn2Cc1cccc(CNC(C)=O)c1` [Example 116, N-{[3-({4-(Methyloxy)-3-[(2-thienylsulfonyl)amino]-1H-indazol-1-yl}methyl)phenyl]methyl}acetamide] gave an IC50 of 100 to 398 nM. With `COc1cccc2c1c(NS(=O)(=O)c1ccc(C)s1)nn2Cc1ccc(CNC(=O)[C@H]2COCCN2)cc1` [Example 120, (3R)—N-({4-[(4-(methyloxy)-3-{[(5-methyl-2-thienyl)sulfonyl]amino}-1H-indazol-1-yl)methyl]phenyl}methyl)-3-morpholinecarboxamide trifluoroacetate] the IC50 was 100 to 398 nM. `COc1cccc2c1c(NS(=O)(=O)c1ccc(Cl)s1)nn2Cc1cccc(CNC(=O)C(C)(C)N)c1` [Example 127, N^1-[(3-{[3-{[(5-Chloro-2-thienyl)sulfonyl]amino}-4-(methyloxy)-1H-indazol-1-yl]methyl}phenyl)methyl]-2-methylalaninamide] gave an IC50 of 3.98 to 15.8 nM. `COc1cc(F)cc2c1c(NS(=O)(=O)c1ccc(Cl)s1)nn2Cc1cccc(CNC(=O)C2COCCN2C)c1` (centres unmarked) [Example 133, N-[(3-{[3-{[(5-Chloro-2-thienyl)sulfonyl]amino}-6-fluoro-4-(methyloxy)-1H-indazol-1-yl]methyl}phenyl)methyl]-4-methyl-3-morpholinecarboxamide] was tested, and the IC50 was 3.98 to 15.8 nM. Work on `COc1c(F)ccc2c1c(NS(=O)(=O)c1ccc(Cl)s1)nn2Cc1cccc(CNC(C)=O)c1` [Example 134, N-[(3-{[3-{[(5-Chloro-2-thienyl)sulfonyl]amino}-5-fluoro-4-(methyloxy)-1H-indazol-1-yl]methyl}phenyl)methyl]acetamide] yielded an IC50 of 3.98 to 15.8 nM. Compound `COc1cccc2c1c(NS(=O)(=O)c1ccc(Cl)s1)nn2Cc1cccc(CNC(=O)CCC(=O)O)c1` [Example 138, 4-{[(3-{[3-{[(5-Chloro-2-thienyl)sulfonyl]amino}-4-(methyloxy)-1H-indazol-1-yl]methyl}phenyl)methyl]amino}-4-oxobutanoic acid] has an IC50 of 3.98 to 15.8 nM.

What follows are compounds tested on CD4+ CCR4+ T cells (assay: Chemokine stimulated increases in cellular F-actin content). Conditions: Homo sapiens, T-cell, 0.5 h; PBMC from normal volunteers; antagonist 30 min at 37° C. before agonist for 15 sec; F-actin content by flow cytometry; read-out: pA2 (converted).
Type: cell-based
Method: Chemokine Stimulated Increases in Cellular F-Actin Content
Blood was taken from normal volunteers who had taken no medication within the previous ten days and mixed with 1/9 of the volume of 3.8% tri-sodium citrate solution. Chemokine-induced increases in the F-actin content of CD4+ CCR4+ T cells were measured by a modification of the method of Pilette et al. (Eur. Respir. J; 23: 876-884, 2004). Peripheral blood mononuclear cells (PBMC) were isolated by dextran sedimentation followed by Percoll density gradient centrifugation. The PBMCs were incubated with FITC-conjugated anti-human CD4 and PE-conjugated anti-CCR4 antibodies or appropriate isotype controls for 15 min. The cell suspensions were then centrifuged at 400 g for 10 min and the pellets resuspended in assay buffer (phenol red-free RPMI 1640 medium containing 10 mM HEPES and 0.1% bovine serum albumin) at 10^7/mL. The resulting cell suspension was incubated with antagonist or vehicle (0.1% DMSO) for 30 min at 37° C. before stimulation with the agonist for 15 sec. The assay was terminated by addition of 3% formaldehyde. The fixed cells were washed twice with PBS (centrifuging at 1000 g for 5 min to recover the cells) and incubated at room temperature with Alexa fluor-647 phalloidin (0.075 U/mL) in the presence of lyso-phosphatidylcholine (93.75 μg/ml) for 20 min to stain F-actin. The cells were washed once more with PBS and the relative F-actin content of the cells was measured flow cytometrically. The mean fluorescence intensity of 1000 CD4^+ CCR4^+ cells per sample was determined and expressed as a fraction of the mean intensity of the CD4^+ CCR4^− cells in that sample.
With `COc1cccc2c1c(NS(=O)(=O)c1ccc(Cl)s1)nn2Cc1cccc(CNC(=O)C2CCCO2)c1` (centres unmarked) [Example 89, N-[(3-{[3-{[(5-Chloro-2-thienyl)sulfonyl]amino}-4-(methyloxy)-1H-indazol-1-yl]methyl}phenyl)methyl]tetrahydro-2-furancarboxamide] the Kb was ≤ 126 nM. `COc1cccc2c1c(NS(=O)(=O)c1ccc(Cl)s1)nn2Cc1cccc(CNC(=O)C2COCCN2C)c1` (centres unmarked) [Example 96, N-[(3-{[3-{[(5-Chloro-2-thienyl)sulfonyl]amino}-4-(methyloxy)-1H-indazol-1-yl]methyl}phenyl)methyl]-4-methyl-3-morpholinecarboxamide] was tested, and the Kb was ≤ 126 nM. `COc1ccc(Cn2nc(NS(=O)(=O)c3ccc(Cl)s3)c3c(OC)cccc32)cc1OCCN(C)C` [Example 110, 5-Chloro-N-[1-{[3-{[2-(dimethylamino)ethyl]oxy}-4-(methyloxy)phenyl]methyl}-4-(methyloxy)-1H-indazol-3-yl]-2-thiophenesulfonamide] was tested, and the Kb was ≤ 126 nM. `O=C(NCc1cccc(Cn2nc(NS(=O)(=O)c3ccc(Cl)s3)c3c(O)cccc32)c1)[C@H]1COCCN1` [Example 111, (3R)—N-({3-[(3-{[(5-chloro-2-thienyl)sulfonyl]amino}-4-hydroxy-1H-indazol-1-yl)methyl]phenyl}methyl)-3-morpholinecarboxamide formate salt] was tested, and the Kb was ≤ 126 nM. For `CNCC(=O)NCc1cccc(Cn2nc(NS(=O)(=O)c3ccc(Cl)s3)c3c(O)cccc32)c1` [Example 112, N^1-({3-[(3-{[(5-chloro-2-thienyl)sulfonyl]amino}-4-hydroxy-1H-indazol-1-yl)methyl]phenyl}methyl)-N^2-methylglycinamide formate salt], the Kb was ≤ 126 nM. `CCNC(=O)NCc1cccc(Cn2nc(NS(=O)(=O)c3ccc(Cl)s3)c3c(OC)cccc32)c1` [Example 113, 5-Chloro-N-[1-{[3-({[(ethylamino)carbonyl]amino}methyl)phenyl]methyl}-4-(methyloxy)-1H-indazol-3-yl]-2-thiophenesulfonamide] was tested, and the Kb was ≤ 126 nM. `COc1ccc(Cn2nc(NS(=O)(=O)c3ccc(C)s3)c3c(OC)cccc32)cc1OC` [Example 118, N-[1-{[3,4-Bis(methyloxy)phenyl]methyl}-4-(methyloxy)-1H-indazol-3-yl]-5-methyl-2-thiophenesulfonamide] was tested, and the Kb was ≤ 126 nM. `COc1cc(F)cc2c1c(NS(=O)(=O)c1ccc(Cl)s1)nn2Cc1cccc(CNC(C)=O)c1` [Example 129, N-[(3-{[3-{[(5-Chloro-2-thienyl)sulfonyl]amino}-6-fluoro-4-(methyloxy)-1H-indazol-1-yl]methyl}phenyl)methyl]acetamide] was tested, and the Kb was ≤ 126 nM. In the case of `COc1cccc2c1c(NS(=O)(=O)c1ccc(Cl)s1)nn2Cc1cccc(CNC(=O)[C@@H]2CCCN2)c1` [Example 158, N-[(3-{[3-{[(5-Chloro-2-thienyl)sulfonyl]amino}-4-(methyloxy)-1H-indazol-1-yl]methyl}phenyl)methyl]-L-prolinamide trifluoroacetate], the Kb is reported as ≤ 126 nM. `COc1cccc2c1c(NS(=O)(=O)c1ccc(Cl)s1)nn2Cc1cccc(CNC(=O)[C@@H]2CCN2)c1` [Example 159, (2S)—N-[(3-{[3-{[(5-Chloro-2-thienyl)sulfonyl]amino}-4-(methyloxy)-1H-indazol-1-yl]methyl}phenyl)methyl]-2-azetidinecarboxamide trifluoroacetate] was tested, and the Kb was ≤ 126 nM. With `COc1cccc2c1c(NS(=O)(=O)c1ccc(C)s1)nn2Cc1cccc(CNC(=O)[C@H]2COCCN2)c1` [Example 160, (3R)—N-({3-[(4-(Methyloxy)-3-{[(5-methyl-2-thienyl)sulfonyl]amino}-1H-indazol-1-yl)methyl]phenyl}methyl)-3-] the Kb was ≤ 126 nM. With `CCN(CC)C(=O)c1ccc(Cn2nc(NS(=O)(=O)c3ccc(Cl)s3)c3c(OC)cccc32)cc1` [Example 163, 4-{[3-{[(5-Chloro-2-thienyl)sulfonyl]amino}-4-(methyloxy)-1H-indazol-1-yl]methyl}-N,N-diethylbenzamide] the Kb was > 1000 nM. For `O=C(NCc1cccc(Cn2nc(NS(=O)(=O)c3ccc(Cl)s3)c3c(O)cccc32)c1)[C@@H]1COCCN1` [Example 166, (3S)—N-({3-[(3-{[(5-Chloro-2-thienyl)sulfonyl]amino}-4-hydroxy-1H-indazol-1-yl)methyl]phenyl}methyl)-3-morpholinecarboxamide formate salt], the Kb was ≤ 126 nM.
